According to patent publication US6962907B2, “Neurologically-active compounds” (The University of Sydney, priority 2001, dated 2005):
Like-named read-outs stand apart in the source and are kept apart here.

Tests used:
[1] = biological target: GABAC receptors; settings: Woodward et al, 1993; read-out: KB as antagonist at GABAC receptors; cited from earlier work
[2] = biological target: GABAC (ρ1) receptor (Homo sapiens, UniProt P24046); assay: Two-electrode voltage clamp at GABAC (ρ1) receptors expressed in Xenopus oocytes; settings: for current response to GABA alone: FIG. 11(a)
Experimental: (§1) For example, ρ1 GABAC receptor subunit subcloned in ρ1 cDNA 1.1 and is linearised using the restriction enzyme Xbal . Following this, the mRNA is then prepared from the linearised ρ1 subunit using T7 polymerase. This genetic material is then injected into the Xenopus laevis oocytes and incubated for 2 to 9 days, to allow for the process of translation to occur. After this process the Xenopus laevis oocytes show expression of the receptor and ion channel assembly on the cell surface.
(§2) Female Xenopus laevis frogs were anaesthetised with tricaine (850 mg/500 mL) and a lobe of their ovaries surgically removed. […] Stage V-VI oocytes were collected and stored in Frog Ringer (ND96) wash solution (96 mM NaCI, 2 mM KCI, 1 mM MgCl2.6H20, 1.8 mM CaCl2.2H2O, 5 mM HEPES (hemi-Na salt), pH 7.5) supplemented with 2.5 mM sodium pyruvate, 0.5 mM theophylline, and 50 μg/mL gentamicin.
(§3) Micropipettes were prepared by the microprocessor-controlled vertical pipette puller (World Precision Instruments) and bevelled to a tip diameter of 10-20 μm. The micropipettes were filled with mineral oil to ensure the mRNA solution would be drawn up into the micropipette under negative pressure. A Nanoject injector (World Precision Instruments) was used to deliver GABAA, GABAB or GABAC mRNA (50 nL) into the cytoplasm of the Xenopus oocytes. After injection with the appropriate mRNA, the oocytes were placed in a storage solution of ND96 wash solution supplemented with 2.5 mM sodium pyruvate, 0.5 mM theophylline and gentamicin (50 μg/mL) and stored on a slow speed rotator in an 18° C. controlled temperature incubator (Contherm, Petone, NZ). The storage solution was changed daily (or twice daily) and dead or unhealthy oocytes were removed to prolong the health of the remaining cells.
(§4) Prior to recording, 100 mM stock solutions of (±)-cis- and (±)-trans-3-ACPBPA were prepared using autoclaved MilliQ water and stored at −20° C. […] At the time the experiments were to be recorded, the stock solutions were diluted with ND96 wash solution for testing on GABAA and GABAC receptors or 45 mM K^+ solution (45 mM NaCI, 45 mM KCI, 1 mM MgCl2.6H2O, 1.8 mM CaCl2.2H2O, 5 mM HEPES (hemi-Na salt), pH 7.5 at 25° C.) for testing on GABAB receptors.
(§5) After 2 to 9 days of incubation, receptor activity using two-electrode voltage clamp recordings were acquired by means of a Geneclamp 500 amplifier (Axon Instruments Inc., Foster City, Calif., USA), a MacLab 2e recorder (AD Instruments, Sydney, Australia) and Chart™ v.3.6.3 for Macintosh (AD Instruments) to digitise the current and voltage signals.
(§6) The recording microelectrodes were prepared from borosilicate glass capillaries (1.2 mm i.d.×0.94 mm o.d.; Clark Electromedical Instruments, Pangbourne, UK) using a micropipette puller (World Precision Instruments). The microelectrodes (tip resistances 0.5-1.5 MΩ) were filled with 3 M potassium chloride and a microscope was used to direct the insertion of these microelectrodes into the oocyte positioned in the cell bath. The membrane potential of the oocyte was then voltage-clamped at −60 mV.
(§7) Oocytes with an adequate level of receptor expression (with maximal currents (I)≧50 nA) were used for subsequent recording. […] Oocytes were washed for 3-4 minutes between applications of drug doses to ensure for receptor recovery.

[3] = biological target: GABAC (ρ2) receptor (Homo sapiens, UniProt P28476); assay: Two-electrode voltage clamp at GABAC (ρ2) receptors expressed in Xenopus oocytes; settings: FIG. 11(b)
Experimental: as §1, §2, §3, §4, §5, §6, §7

[4] = biological target: T1, GABAC (ρ3) receptor (Rattus norvegicus, UniProt P50573); assay: Two-electrode voltage clamp at GABAC (ρ3) receptors expressed in Xenopus oocytes; settings: GABA 10 μM; FIG. 11(c)
T1 sequence (P50573 16-464): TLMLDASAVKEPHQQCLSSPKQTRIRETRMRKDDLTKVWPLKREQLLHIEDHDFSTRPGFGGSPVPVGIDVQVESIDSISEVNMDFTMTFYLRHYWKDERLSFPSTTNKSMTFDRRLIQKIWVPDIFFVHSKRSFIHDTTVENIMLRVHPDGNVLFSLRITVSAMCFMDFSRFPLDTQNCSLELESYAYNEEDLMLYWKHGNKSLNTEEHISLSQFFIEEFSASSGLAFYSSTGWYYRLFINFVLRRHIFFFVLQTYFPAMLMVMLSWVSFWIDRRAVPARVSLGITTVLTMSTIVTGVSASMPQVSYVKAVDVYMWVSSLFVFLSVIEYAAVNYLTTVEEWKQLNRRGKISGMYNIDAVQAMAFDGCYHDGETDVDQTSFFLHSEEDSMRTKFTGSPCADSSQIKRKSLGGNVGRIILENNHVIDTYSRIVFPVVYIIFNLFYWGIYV
Experimental: as §1, §2, §3, §4, §5, §6, §7

[5] = biological target: GABAA (α2β2γ2s) receptor (Homo sapiens, UniProt P47869+P47870); assay: Two-electrode voltage clamp at GABAA (α2β2γ2s) receptors expressed in Xenopus oocytes; settings: oocyte clamped at −60 mV, FIG. 9
Experimental: as §1, §2, §3, §4, §5, §6, §7

[6] = biological target: T2, GABAC receptor (Homo sapiens, UniProt P24046); settings: cited from earlier work
[7] = tested on: GABAA receptors; settings: TPMPA 300 μM; cited from earlier work
[8] = tested on: GABAB receptor; settings: dose of 500 μM; cited from earlier work
[9] = tested on: GABAA receptors; assay: Activity of ACPMPA isomers at GABAA receptors (subtype not stated), as for ACPBPA; type: cell-based; settings: for reduction of the current produced by GABA (10 μM): 300 μM compound
[10] = biological target: T2, GABAC receptor; assay: Activity of ACPMPA isomers as GABAC receptor antagonists (subtype not stated), as for ACPBPA; type: cell-based; set-up: expressed in transfected cells; settings: for Kb: read-out: KB as GABAC receptor antagonist
[11] = biological target: GABAB receptor (Homo sapiens, UniProt Q9UBS5); assay: Two-electrode voltage clamp at GABAB receptors (subtype not stated) expressed in Xenopus oocytes; settings: for EC50: read-out: EC50 as GABAB receptor agonist
GABAB receptor (Homo sapiens, UniProt Q9UBS5), sequence (Q9UBS5 20-961): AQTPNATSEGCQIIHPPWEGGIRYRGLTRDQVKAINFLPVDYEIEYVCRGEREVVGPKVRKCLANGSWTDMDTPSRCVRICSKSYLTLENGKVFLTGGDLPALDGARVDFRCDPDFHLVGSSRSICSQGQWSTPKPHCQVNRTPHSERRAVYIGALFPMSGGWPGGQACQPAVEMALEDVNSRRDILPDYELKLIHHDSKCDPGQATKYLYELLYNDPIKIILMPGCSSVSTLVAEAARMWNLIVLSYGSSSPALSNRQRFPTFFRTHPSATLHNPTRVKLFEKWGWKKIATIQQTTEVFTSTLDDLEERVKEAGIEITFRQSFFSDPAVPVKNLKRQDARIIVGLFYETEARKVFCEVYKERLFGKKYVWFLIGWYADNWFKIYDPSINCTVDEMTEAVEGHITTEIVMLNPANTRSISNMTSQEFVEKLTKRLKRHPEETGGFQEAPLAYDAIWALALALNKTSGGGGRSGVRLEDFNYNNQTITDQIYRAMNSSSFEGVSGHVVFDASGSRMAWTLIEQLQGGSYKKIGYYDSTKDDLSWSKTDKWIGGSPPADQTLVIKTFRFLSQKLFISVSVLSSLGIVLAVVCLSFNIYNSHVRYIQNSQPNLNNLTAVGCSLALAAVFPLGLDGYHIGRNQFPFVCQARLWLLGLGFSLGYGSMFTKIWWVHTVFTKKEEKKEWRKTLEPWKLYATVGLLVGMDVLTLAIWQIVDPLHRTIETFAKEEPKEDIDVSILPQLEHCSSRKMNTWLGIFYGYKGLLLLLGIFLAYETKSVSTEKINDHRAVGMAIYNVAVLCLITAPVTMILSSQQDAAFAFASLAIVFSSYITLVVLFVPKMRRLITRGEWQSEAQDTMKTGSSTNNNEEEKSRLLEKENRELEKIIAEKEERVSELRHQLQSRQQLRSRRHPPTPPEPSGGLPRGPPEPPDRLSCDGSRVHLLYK
GABAB receptor (Homo sapiens, UniProt Q9UBS5), sequence (O75899 42-941 partner): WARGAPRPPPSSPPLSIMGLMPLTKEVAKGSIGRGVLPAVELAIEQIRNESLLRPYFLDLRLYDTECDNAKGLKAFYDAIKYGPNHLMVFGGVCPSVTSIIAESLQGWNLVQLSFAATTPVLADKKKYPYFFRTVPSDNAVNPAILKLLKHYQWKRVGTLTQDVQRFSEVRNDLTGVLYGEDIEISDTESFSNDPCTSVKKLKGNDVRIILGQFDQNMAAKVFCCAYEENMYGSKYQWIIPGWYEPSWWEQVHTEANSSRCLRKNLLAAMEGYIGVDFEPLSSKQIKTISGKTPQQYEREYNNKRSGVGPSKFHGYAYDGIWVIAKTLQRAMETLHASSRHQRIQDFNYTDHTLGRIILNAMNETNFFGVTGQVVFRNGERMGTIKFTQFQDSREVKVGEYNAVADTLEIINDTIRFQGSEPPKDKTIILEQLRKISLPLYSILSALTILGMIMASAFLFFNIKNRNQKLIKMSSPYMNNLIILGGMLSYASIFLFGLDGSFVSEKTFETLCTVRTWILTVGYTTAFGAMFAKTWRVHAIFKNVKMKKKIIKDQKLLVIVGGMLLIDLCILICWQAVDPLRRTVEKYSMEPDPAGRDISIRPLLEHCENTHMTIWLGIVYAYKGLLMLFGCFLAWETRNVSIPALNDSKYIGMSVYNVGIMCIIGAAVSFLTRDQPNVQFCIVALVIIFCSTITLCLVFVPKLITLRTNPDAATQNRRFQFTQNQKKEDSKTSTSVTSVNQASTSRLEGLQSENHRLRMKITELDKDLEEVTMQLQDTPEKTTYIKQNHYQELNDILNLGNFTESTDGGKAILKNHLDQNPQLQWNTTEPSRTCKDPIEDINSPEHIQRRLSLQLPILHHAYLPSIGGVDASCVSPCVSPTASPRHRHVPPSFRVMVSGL

T2 sequence (P24046 22-479): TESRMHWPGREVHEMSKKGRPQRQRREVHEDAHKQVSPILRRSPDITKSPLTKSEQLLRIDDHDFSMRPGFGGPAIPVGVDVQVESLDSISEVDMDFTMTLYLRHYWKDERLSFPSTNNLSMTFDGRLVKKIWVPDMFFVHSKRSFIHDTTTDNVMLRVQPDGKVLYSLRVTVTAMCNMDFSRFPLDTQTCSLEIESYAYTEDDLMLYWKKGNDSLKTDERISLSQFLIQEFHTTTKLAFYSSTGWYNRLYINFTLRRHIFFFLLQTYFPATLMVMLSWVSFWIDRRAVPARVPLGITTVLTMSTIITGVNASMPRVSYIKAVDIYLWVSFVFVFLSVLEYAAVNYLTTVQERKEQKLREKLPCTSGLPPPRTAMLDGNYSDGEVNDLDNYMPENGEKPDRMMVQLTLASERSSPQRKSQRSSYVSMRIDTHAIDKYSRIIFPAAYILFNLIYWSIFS
GABAC (ρ1) receptor, sequence (P24046 22-479): as above
GABAA (α2β2γ2s) receptor, sequence (P47869 29-451): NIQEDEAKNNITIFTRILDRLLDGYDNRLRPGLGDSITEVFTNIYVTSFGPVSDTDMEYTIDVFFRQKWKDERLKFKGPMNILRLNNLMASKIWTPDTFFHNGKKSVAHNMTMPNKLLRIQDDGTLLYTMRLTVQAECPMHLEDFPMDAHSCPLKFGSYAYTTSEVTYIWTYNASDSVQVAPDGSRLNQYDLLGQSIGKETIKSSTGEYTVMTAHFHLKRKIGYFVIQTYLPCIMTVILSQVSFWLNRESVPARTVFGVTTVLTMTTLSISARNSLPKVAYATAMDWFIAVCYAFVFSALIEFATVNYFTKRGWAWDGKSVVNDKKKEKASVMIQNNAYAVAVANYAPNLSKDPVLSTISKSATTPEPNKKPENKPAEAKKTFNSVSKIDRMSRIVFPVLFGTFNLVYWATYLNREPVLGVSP
GABAA (α2β2γ2s) receptor, sequence (P47870 25-512 limits assumed): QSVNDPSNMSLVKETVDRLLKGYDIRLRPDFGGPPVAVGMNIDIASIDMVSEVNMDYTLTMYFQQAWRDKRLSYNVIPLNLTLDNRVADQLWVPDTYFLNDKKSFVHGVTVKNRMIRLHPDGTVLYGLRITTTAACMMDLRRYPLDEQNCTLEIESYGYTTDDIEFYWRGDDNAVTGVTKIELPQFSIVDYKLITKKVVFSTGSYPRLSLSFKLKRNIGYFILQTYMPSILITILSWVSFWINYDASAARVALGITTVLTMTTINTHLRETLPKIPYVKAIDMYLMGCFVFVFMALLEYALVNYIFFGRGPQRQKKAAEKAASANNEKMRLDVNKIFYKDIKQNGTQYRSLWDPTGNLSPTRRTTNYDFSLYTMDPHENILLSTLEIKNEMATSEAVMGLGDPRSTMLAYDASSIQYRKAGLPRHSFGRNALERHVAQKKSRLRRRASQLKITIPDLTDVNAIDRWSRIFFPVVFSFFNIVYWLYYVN
GABAA (α2β2γ2s) receptor, sequence (P18507 40-467 isoform P18507-1 partner limits assumed): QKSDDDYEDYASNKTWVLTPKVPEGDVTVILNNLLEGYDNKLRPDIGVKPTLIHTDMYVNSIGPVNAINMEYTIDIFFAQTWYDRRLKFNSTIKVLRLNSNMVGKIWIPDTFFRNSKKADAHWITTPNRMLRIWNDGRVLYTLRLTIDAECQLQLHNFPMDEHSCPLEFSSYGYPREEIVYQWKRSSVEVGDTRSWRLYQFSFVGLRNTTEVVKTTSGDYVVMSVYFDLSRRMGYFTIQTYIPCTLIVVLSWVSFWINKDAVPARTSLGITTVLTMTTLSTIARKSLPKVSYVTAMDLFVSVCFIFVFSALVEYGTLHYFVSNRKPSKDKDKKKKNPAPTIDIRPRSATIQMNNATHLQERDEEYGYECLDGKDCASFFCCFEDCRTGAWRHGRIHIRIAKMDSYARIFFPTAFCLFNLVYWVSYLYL
GABAC (ρ2) receptor, sequence (P28476 21-465): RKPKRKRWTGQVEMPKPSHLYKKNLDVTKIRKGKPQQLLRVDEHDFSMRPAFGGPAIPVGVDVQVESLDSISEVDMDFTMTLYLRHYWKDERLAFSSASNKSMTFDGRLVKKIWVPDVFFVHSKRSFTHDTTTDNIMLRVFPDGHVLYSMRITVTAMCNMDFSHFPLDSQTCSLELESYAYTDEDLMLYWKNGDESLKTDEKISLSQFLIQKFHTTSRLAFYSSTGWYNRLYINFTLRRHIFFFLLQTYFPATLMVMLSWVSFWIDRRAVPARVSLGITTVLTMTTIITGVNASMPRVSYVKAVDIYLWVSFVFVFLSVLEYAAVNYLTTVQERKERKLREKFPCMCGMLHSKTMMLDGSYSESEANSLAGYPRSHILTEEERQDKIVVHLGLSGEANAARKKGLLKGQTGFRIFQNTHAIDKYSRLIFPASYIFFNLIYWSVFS

Compound: CP(=O)(O)CCCN [CGP35024, (3-aminopropyl)methylphosphinc acid]
- Kb [1]: 0.8 µM

Compound: NCCCC(=O)O [GABA, γ-Aminobutyric acid, reference compound]
- current response to GABA alone ([2]; GABA 1 μM): 105 nA
- current response to GABA alone ([2]; GABA 10 μM): 142 nA
- Hill coefficient (nH) for GABA alone ([2]; GABA dose-response curve): 1.9±0.3
- current response to GABA alone ([3]; GABA 1 μM): 23 nA
- current response to GABA alone ([3]; GABA 100 μM): 35 nA
- current response to GABA alone [4]: 880 nA
- current response to GABA alone ([5]; GABA 3 μM): 65 nA
- current response to GABA alone ([5]; GABA 300 μM): 1180 nA

Compound: CP(=O)(O)C1=CCNCC1 [TPMPA]
- selectivity for GABAC than GABAA receptors [6]: 100 times
- selectivity for GABAC than GABAB receptors [6]: 500 times
- reduction of the current produced by GABA (10 μM) [7]: 67%
- activation of the GABAB receptor [8]: about 30%

Compound: (±)-cis-(3-Aminocyclopentanyl)methylphosphinic acid [(±)-cis-3-ACPMPA]
- GABAA antagonist activity in words [9]: very weak activity as antagonists
- reduction of the current produced by GABA (10 μM) [9]: 8%
- selectivity for GABAC than GABAA receptors [10]: more than 100 times
- selectivity for GABAC than GABAB receptors [10]: 50 times
- times more potent than (±)-cis-3-ACPBPA at the GABAC receptors [10]: 12 times
- times more potent than TPMPA [10]: 2 times
- Kb [10]: 1 µM
- GABAB agonist activity in words [11]: moderately potent GABAB receptor agonists
- EC50 [11]: 50 µM

Compound: (±)-trans-(3-Aminocyclopentanyl)methylphosphinic acid [(±)-trans-3-ACPMPA]
- GABAA antagonist activity in words [9]: very weak activity as antagonists
- reduction of the current produced by GABA (10 μM) [9]: 11%
- selectivity for GABAC than GABAA receptors [10]: 45 times
- selectivity for GABAC than GABAB receptors [10]: 24 times
- times less potent than TPMPA [10]: 3 times
- Kb [10]: 6.6 µM
- GABAB agonist activity in words [11]: moderately potent GABAB receptor agonists
- EC50 [11]: 160 µM
